This is an account of results in article PMC5711494, “Sterol methyltransferase a target for anti-amoeba therapy: towards transition state analog and suicide substrate drug design” (Journal of Lipid Research, 2017).

In test [1] the test system is Acanthamoeba castellanii trophozoites (strain ATCC 30010). Description: Ac trophozoite growth inhibition and minimum amoebicidal concentration (trypan blue exclusion). It counts as cell-based. The settings on record: 48 h incubation. The protocol: Ac strain ATCC 30010 was inoculated (1 × 10^4 cells/ml) into tissue culture T-25 ml flasks, prepared with ATTC media 712 and cultured axenically in 5 ml medium at 25°C. Continuous cultures populated by trophozoites ([…]; the remaining cells were cysts) was maintained by sub-culturing 4–5 day growth arrested cells (1 × 10^6 cells/ml) into fresh medium. Steroidal inhibitor and azole susceptibility assays were performed in 24-well (4 × 6) microtiter plates (3 ml total). Trophozoite assay conditions and preparation of stock solutions made to 1 μg/10 μl and 1 μg/100 μl in DMSO through serial dilution to achieve final inhibitor concentrations of 64, 32, 16, 8, 4, 2, 1, 0.5, 0.25, 0.125, 0.0625, and 0.03125 µg/ml in 1% DMSO as reported previously for voriconazole incubated with Ac ([25]). Growth curves to evaluate treated trophozoites were initiated with 1 × 10^6 cells/ml and incubated for 48 h. Cell number was calculated with the use of a hemocytometer. The percentage of viable trophozoites following exposure to different concentrations of inhibitors was determined by the standard trypan blue exclusion method. Cells stained blue were considered nonviable. […] The IC50 of inhibitors against trophozoite growth was evaluated using GraphPad Prism with default setting (GraphPad Software Inc., CA).

Test [2] addresses Ac24-SMT (sterol 24-methyltransferase, SMT1) (Acanthamoeba castellanii, UniProt L8GNG7). Description: Inhibition of recombinant Ac24-SMT assayed with native substrate cycloartenol and [methyl-3H3]SAM. It counts as biochemical. As to conditions: read-out: Ki against 24-SMT (competitive inhibitor); assayed with natural substrate. How it is done: (§1) The SMT constructs were transformed into competent BL21(DE3) cells and transformants selected against 100 µg/ml ampicillin. Expression of the SMT constructs and partial purification of the recombinant proteins followed the procedure described previously ([19]). Briefly, a single colony for 24-SMT and 28-SMT were grown overnight in an orbital shaker (250–300 rpm) at 37°C in Luria broth containing ampicillin and then reinoculated in fresh medium at 1 in 10 dilution. […] In one tube, cells were induced by addition of isopropyl thio-galactoside at a final concentration of 1 mM and in the other tube, were un-induced. Cells were harvested 2 and 4 h after induction and an equal number of cells (as calculated by OD @600 nm) from induced (+) and un-induced (−) cultures were boiled with 1X Laemmli’s buffer and analyzed by SDS-PAGE (12%). […] Total protein concentrations were determined by Bradford dye-binding procedure with bovine γ-globulin as standard. […] Incubation mixtures were saponified with methanolic potassium hydroxide and extracted with hexane (3 × 1 ml) and concentrated to dryness providing the nonsaponifiable lipid fraction; radioactivity was determined by liquid scintillation counting. […] Controls containing radioactive SAM and no sterol used to background subtract radioactivity in these treatments was less than 500 dpm. […]

For test [3], the target named is Ac28-SMT (sterol 28-methyltransferase, SMT2) (Acanthamoeba castellanii, UniProt L8GKC5). Description: Inhibition of recombinant Ac28-SMT assayed with native substrate 24(28)-methylene lophenol and [methyl-3H3]SAM. Format: biochemical. The protocol:
as §1

Test [4] concerns Acanthamoeba castellanii trophozoites sterol biosynthesis. Description: Sterol composition of treated Ac trophozoites (GC/MS). Format: cell-based. As to conditions: 15 µM, 24 h. The protocol:
Amoeba and HEK cells were harvested at one or more points during growth in the presence and absence of steroidal inhibitor and azole at IC50 or MACs of the inhibitor or at 40 µM for HEK cells. Cell pellets were split with an internal standard of known amounts of 5α-cholestane added to one of the cell pellets for determination of sterol amounts in cells. Cells were saponified directly in aqueous methanolic potassium hydroxide at the reflux temperature for 1 h, which yielded total sterol (free plus sterol released from ester bonds). The resulting neutral lipids obtained by dilution with water and extraction with hexane (Fisher) were analyzed by GC/MS or HPLC-equipped with a diode array detector against cholesterol as a chromatographic reference. GC and HPLC retention times of sterols were compared with those obtained from authentic standards in our steroid collection ([18]–[22]). To determine the trophozoite sterol metabolome, GC/MS analysis of cell pellet nonsaponfiables was typically carried out using control cultures incubated in 5 ml medium in 25 ml T-flasks inoculated with 1 × 10^4 trophozoites/ml and cultured for 72 h. To generate significant cell pellets for sterol analysis of treated cells, trophozoites were cultured in 10 ml medium in 25 ml T-flasks inoculated with 1 × 10^5 cells/ml and grown for 48 h.

The next test relates to Ac24-SMT. Description: Covalent labeling of Ac24-SMT with DHL and 3H-SAM, SDS-PAGE gel slice counting. Format: binding, Acanthamoeba castellanii. The settings on record: 45 min, 35°C, SDS-PAGE gel slices. The protocol: For 24-SMT labeling, partially pure recombinant enzyme obtained from 0.25 salt gradient fraction after Q-chromatography and desalted with buffer exchange (as reported in reference) was generated as a reference specimen of cloned SMT migrating at ∼39 kDa indicated by a protein ladder (Bio-Rad). Protein was stained with Coomassie Brilliant Blue R 250. […] After filtration and concentration, 22 µg total protein was loaded on 12% SDS-PAGE gel against a protein ladder (Bio-Rad) that ranged from 15 to 100 kDa. Next, five bands were excised from the gel corresponding to approximate molecular masses that range between 1) 15–25 kDa, 2) 25–35 KDa, 3) 35–45 kDa, 4) 45–55 kDa, and 5) 55–75 kDa, placed into a vial of 50% hydrogen peroxide, and left overnight at 60°C for digestion ([29]). To these vials was added scintillant and the radioactivity (^3H in dpm) measured by liquid scintillation counting.

Chain of Ac28-SMT (sterol 28-methyltransferase, SMT2) (L8GKC5 entry or part of it): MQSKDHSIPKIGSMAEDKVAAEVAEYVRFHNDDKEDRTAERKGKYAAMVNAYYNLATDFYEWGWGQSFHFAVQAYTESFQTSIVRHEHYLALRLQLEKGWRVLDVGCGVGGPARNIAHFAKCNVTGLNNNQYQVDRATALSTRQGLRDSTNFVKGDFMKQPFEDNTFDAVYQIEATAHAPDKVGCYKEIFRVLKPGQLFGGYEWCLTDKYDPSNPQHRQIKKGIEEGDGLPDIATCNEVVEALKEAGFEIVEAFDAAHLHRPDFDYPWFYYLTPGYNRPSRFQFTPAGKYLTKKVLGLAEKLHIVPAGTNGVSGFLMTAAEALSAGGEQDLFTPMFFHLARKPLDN
Chain of Ac24-SMT (sterol 24-methyltransferase, SMT1) (L8GNG7 entry or part of it): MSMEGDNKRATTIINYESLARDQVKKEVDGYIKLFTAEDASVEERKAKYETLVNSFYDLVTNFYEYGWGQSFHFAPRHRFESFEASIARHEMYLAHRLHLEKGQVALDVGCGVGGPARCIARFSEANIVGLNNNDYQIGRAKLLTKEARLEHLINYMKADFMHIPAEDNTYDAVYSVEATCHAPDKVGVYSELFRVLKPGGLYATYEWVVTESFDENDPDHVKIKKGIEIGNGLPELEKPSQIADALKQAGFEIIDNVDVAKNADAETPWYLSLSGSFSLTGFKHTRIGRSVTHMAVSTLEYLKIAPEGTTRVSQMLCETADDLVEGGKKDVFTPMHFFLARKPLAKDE

With `CC(CCC=C1CC1)C1CC[C@@]2(C)C3=C(CCC12C)C1(C)CCC(O)C(C)(C)C1CC3` (stereo partly shown) [DHL, 26,27-dehydrolanosterol], the “MAC (complete inhibition of growth, minimum amoebicidal concentration)” value in test [1] turned out to be 15 µM. For the same compound, in test [1] (Acanthamoeba castellanii, ATCC30010, Ac trophozoites), inhibition was half-maximal at 6 µM (IC50). The Ki (usually the dissociation constant of the complex between target and ligand, obtained from inhibition or displacement) in test [2] was 16 µM; in test [3] (read-out: Ki against 28-SMT (competitive inhibitor), assayed with natural substrate), 54 µM. Besides, in test [3], the “kinact/Ki against 28-SMT” value is “effectively zero”. Besides, the “effect on sterol composition” value in test [4] was “minimal effect”. For the same compound, the “radioactivity associated with protein band of ∼39 kDa” value with Ac24-SMT was less than 90%.
